Measurements from patent US11603355B2, “Charged ion channel blockers and methods for use” (Nocion Therapeutics, Inc., priority 2019, dated 2023).

Key:
[1] = PAMPA membrane permeability assay; format: in vitro ADME; conditions: permeability coefficient, pH 7.4 buffer, GIT lipid, 4 hours incubation
In short: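 Passive diffusion across a GIT-lipid-painted artificial membrane at pH 7.4, with a 50 uM donor stock diluted from DMSO and a 4 h incubation. UV spectra of the donor, acceptor and reference plates were read, and the permeability coefficient was calculated from the AUCs, in 10^−6 cm/s.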

NaV1.7 [2] = target: T1, NaV1.7 (Homo sapiens, UniProt Q15858); assay: Manual patch clamp, external block of NaV1.7 current; format: cell-based; conditions: % inhibition at 10 μM test concentration, compound in external solution, HEK293 cells, read-out: Nav1.7 Extracellular Inhibition
T1 construct: expressed in transfected cells; host or cells: HEK293 (tetracycline-inducible)
Procedure: (§1) Representative compounds of the invention were synthesized according to the described methods and tested for the ability to inhibit voltage-gated sodium channels.
(§2) NaV1.7 was expressed in HEK293 cells upon induction with tetracycline. Cells were cultured in DMEM containing 10% dialyzed Fetal Bovine Serum (VWR, Radnor, Pa.), 1% Glutamax (VWR, Radnor, Pa.), 1% Penicillin-Streptomycin (VWR, Radnor, Pa.), 100 mg/L Hygromycin (Thermo Fisher Scientific, Waltham, Mass. and 5 mg/L Blasticidin (Alfa Aesar, Haverhill, Mass.). Cells were grown and maintained at 37° C. in a humidified environment containing 10% CO2 in air. Cells were detached from the culture flask for passage and harvested using 0.05% Trypsin-EDTA (Thermo Fisher Scientific, Waltham, Mass.). To induce NaV1.7, cells were induced with tetracycline (0.1-1 μg/mL, IBI Scientific, Peosta, Iowa) the day before recording and plated onto 24-well plates. Cells were washed with DPBS (VWR, Radnor, Pa.), trypsinized and then triturated five times in 10 mL of growth media to break apart cell aggregates. For one 24-well plate, 2 mL of cell suspension was mixed with 23 mL of fresh growth media and 0.1-1 μg/mL tetracycline added. 1 ml of mixed media with cells was then added to each well of a 24-well plate, with a 12 mm coverslip already placed in the bottom of the well. Cells were then incubated in 37° C. and 10% CO2 overnight.
(§3) The intracellular solution contained the following (in mM) CsCl 135, NaCl 10, EGTA 10, HEPES 10, MgCl2 2, adjusted to pH 7.2 with CsOH. The external solution was a normal Ringer solution containing (in mM) NaCl 155, HEPES 10, glucose 10, KCl 3.5, CaCl2 1.5, MgCl2 1 adjusted to pH 7.4 with NaOH. CsCl is from Alfa Aesar, Haverhill, Mass. All other chemicals are from Sigma-Aldrich, St. Louis, Mo. In order to test the degree of internal block by test compounds the compounds were dissolved in internal solution at the indicated test concentration. […] In order to test the degree of external block by test compounds the compounds were dissolved in external solution at the indicated test concentration.
(§4) 18-24 hours after cells were induced with tetracycline, coverslips were placed into a chamber filled with Normal Ringer solution at room temperature and the chamber placed on a microscope. Pipettes were pulled from borosilicate glass on a P97 puller (Sutter Instrument, Novato, Calif.) and polished with a MF-830 Microforge (Narishige International USA, Inc., Amityville, N.Y.) to have a resistance of 1.5-2.5 MΩ when filled with CsCl internal solution at room temperature. Healthy cells (those that are round and translucent with no visible blemishes) were chosen for seal formation. A seal was formed between the pipette and the cell, and a brief pulse of suction was used to “break in” and establish the whole-cell configuration. The membrane potential was held at −100 mV before the voltage protocol began. Only cells with series resistance between 1.5-5 MΩ were retained for analysis. The voltage protocol was as follows: Cells were held at −100 mV for 12 ms followed by a hyperpolarizing step to −105 mV for 12 ms to monitor the leak. Cells were then stepped back to −100 mV for 40 ms. Cells were then depolarized to −20 mV for 10 ms and then returned to −100 mV for 26 ms.
Once the recording was started, the voltage protocol was run at 30 second intervals for 5 minutes to get a stable baseline. This is followed by 5 Hz stimulation of the same voltage protocol run until the end of experiment. […] The test compound is added for 5 minutes before washing out with normal Ringer's solution. Currents were recorded using PatchMaster software with Heka EPC10 (HEKA Electronics, Lambrecht, Germany). Only cells with inward current amplitudes at −20 mV between 400 pA and 4 nA were accepted. In addition, cells having leak currents greater than 10% of their current amplitudes were discarded. […]

NaV1.7 [3] = target: T1, NaV1.7; assay: Manual patch clamp, internal block of NaV1.7 current; format: cell-based; conditions: compound in internal solution, HEK293 cells, read-out: Nav1.7 Intracellular Inhibition; for inhibition at 3 µM: % inhibition at 3 μM test concentration; for inhibition at 10 µM: % inhibition at 10 μM test concentration
Procedure: as §1, §2, §3, §4
Once the recording was started, the voltage protocol was run at 30 second intervals for 5 minutes to get a stable baseline. This was followed by four 30-second periods of 5 Hz stimulation of the same voltage protocol separated by 1 minute of rest which was then followed by 0.33 Hz stimulation after the last train. Currents were recorded using PatchMaster software with Heka EPC10 (HEKA Electronics, Lambrecht, Germany). Only cells with inward current amplitudes at −20 mV between 400 pA and 4 nA were accepted. In addition, cells having leak currents greater than 10% of their current amplitudes were discarded. […]

NaV1.7 [4] = target: T1, NaV1.7; assay: Automated patch clamp (Qube 384), internal block of NaV1.7; format: cell-based; conditions: IC50, compound in internal solution, HEK293 cells, read-out: Nav1.7 Intracellular Inhibition
Procedure: NaV1.7 was expressed in HEK293 cells upon induction with tetracycline. Cells were cultured in DMEM containing 10% dialyzed Fetal Bovine Serum (VWR, Radnor, Pa.), 1% Glutamax (VWR, Radnor, Pa.), 1% Penicillin-Streptomycin (VWR, Radnor, Pa.), 100 mg/L Hygromycin (Thermo Fisher Scientific, Waltham, Mass. and 5 mg/L Blasticidin (Alfa Aesar, Haverhill, Mass.). Cells were grown and maintained at 37° C. in a humidified environment containing 10% CO2 in air. Cells were detached from the culture flask for passage and harvested using 0.05% Trypsin-EDTA (Thermo Fisher Scientific, Waltham, Mass.). To induce NaV1.7, cells were induced with tetracycline (0.1-1 μg/mL, IBI Scientific, Peosta, Iowa) the day before recording.
Before experiments, cells were washed with DPBS (VWR, Radnor, Pa.), digested with Detachin (VWR Radnor, Pa.) and then triturated 10 times in CHO Serum-Free Media (VWR Radnor, Pa.) to resuspend the cells and to break apart cell aggregates. Cells were counted and the final concentration was set at 2-5 million cells per mL.
The intracellular solution contained the following: 140 mM CsF, 1 mM/5 mM EGTA/CsOH, 10 mM HEPES, 10 mM NaCl, adjusted to pH 7.3 with CsOH, and osmolality to 320 with OSM solution. The external solution contained the following: 145 mM NaCl, 4 mM KCl, 1 mM MgCl2, 2 mM CaCl2), 10 mM HEPES, 10 mM Glucose, adjusted to pH 7.4 with CsOH and osmolality to 305 with OSM solution. The OSM solution was a normal Ringer solution containing (in mM) NaCl 155, HEPES 10, sucrose, KCl 3.5, CaCl2) 1.5, MgCl2 1 adjusted to pH 7.4 with NaOH. All chemicals are from Sigma-Aldrich, St. Louis, Mo. In order to test the degree of internal block by test compounds, the compounds were dissolved in internal solution at the indicated test concentration. […] In order to test the degree of external block by test compounds the compounds were dissolved in external solution at the indicated test concentration.
Automated Patch Clamps were performed on Qube 384 (Sophion Bioscience, Woburn Mass.) with multihole Qchips at a temperature setting of 22 degrees. The whole cells configuration was formed with default Qube seal and break-in parameter. The membrane potential was held at −100 mV before the voltage protocol began. Two voltage protocols were followed.
Step 1: Cells were held at −100 mV with a depolarized pulse to −20 mV for 10 ms, the interval was set at 5 s. Currents were corrected by default leak subtraction from every pulse. The duration was set at 5 mins.
Step 2: Cells were held at −100 mV with a depolarized pulse to −20 mV for 10 ms. The frequency was 5 Hz. Currents were corrected by leak subtraction calculated before step 2. The duration was set at 4 mins.
After Step 2, the Qchip was removed from the recording chamber. The internal solution was changed with solutions containing test compounds. Qchips were held at −100 mV without pulsing after being replaced in the recording chamber. The total solution switching time was 8 minutes. After the internal solution exchange, Cells were recorded and step 2 for repeated for 10 minutes.
Data analysis was performed by Sophion Analyzer. Cells were filtered with minimum 50 MOhm seal resistance and minimum 5 nA starting current. The rundown of the currents was corrected with control cells (Non-Drug). The remaining was calculated by averaging last 3 points in the end of experiments. The base line was calculated as the average of last 3 points of Step 2.
IC50 curves were plotted with DR-plots/Hill function (a dose-response plot with a Hill fit).
Representative examples of the invention were tested for intracellular inhibition of NaV 1.7 in the automated patch clamp assay. Activity Range is reported as IC50: “++++” (<0.3 μM), “+++” (0.3-1 μM), “++” (1-3 μM) or “+” (3-10 μM).

T1 sequence (Q15858 whole entry): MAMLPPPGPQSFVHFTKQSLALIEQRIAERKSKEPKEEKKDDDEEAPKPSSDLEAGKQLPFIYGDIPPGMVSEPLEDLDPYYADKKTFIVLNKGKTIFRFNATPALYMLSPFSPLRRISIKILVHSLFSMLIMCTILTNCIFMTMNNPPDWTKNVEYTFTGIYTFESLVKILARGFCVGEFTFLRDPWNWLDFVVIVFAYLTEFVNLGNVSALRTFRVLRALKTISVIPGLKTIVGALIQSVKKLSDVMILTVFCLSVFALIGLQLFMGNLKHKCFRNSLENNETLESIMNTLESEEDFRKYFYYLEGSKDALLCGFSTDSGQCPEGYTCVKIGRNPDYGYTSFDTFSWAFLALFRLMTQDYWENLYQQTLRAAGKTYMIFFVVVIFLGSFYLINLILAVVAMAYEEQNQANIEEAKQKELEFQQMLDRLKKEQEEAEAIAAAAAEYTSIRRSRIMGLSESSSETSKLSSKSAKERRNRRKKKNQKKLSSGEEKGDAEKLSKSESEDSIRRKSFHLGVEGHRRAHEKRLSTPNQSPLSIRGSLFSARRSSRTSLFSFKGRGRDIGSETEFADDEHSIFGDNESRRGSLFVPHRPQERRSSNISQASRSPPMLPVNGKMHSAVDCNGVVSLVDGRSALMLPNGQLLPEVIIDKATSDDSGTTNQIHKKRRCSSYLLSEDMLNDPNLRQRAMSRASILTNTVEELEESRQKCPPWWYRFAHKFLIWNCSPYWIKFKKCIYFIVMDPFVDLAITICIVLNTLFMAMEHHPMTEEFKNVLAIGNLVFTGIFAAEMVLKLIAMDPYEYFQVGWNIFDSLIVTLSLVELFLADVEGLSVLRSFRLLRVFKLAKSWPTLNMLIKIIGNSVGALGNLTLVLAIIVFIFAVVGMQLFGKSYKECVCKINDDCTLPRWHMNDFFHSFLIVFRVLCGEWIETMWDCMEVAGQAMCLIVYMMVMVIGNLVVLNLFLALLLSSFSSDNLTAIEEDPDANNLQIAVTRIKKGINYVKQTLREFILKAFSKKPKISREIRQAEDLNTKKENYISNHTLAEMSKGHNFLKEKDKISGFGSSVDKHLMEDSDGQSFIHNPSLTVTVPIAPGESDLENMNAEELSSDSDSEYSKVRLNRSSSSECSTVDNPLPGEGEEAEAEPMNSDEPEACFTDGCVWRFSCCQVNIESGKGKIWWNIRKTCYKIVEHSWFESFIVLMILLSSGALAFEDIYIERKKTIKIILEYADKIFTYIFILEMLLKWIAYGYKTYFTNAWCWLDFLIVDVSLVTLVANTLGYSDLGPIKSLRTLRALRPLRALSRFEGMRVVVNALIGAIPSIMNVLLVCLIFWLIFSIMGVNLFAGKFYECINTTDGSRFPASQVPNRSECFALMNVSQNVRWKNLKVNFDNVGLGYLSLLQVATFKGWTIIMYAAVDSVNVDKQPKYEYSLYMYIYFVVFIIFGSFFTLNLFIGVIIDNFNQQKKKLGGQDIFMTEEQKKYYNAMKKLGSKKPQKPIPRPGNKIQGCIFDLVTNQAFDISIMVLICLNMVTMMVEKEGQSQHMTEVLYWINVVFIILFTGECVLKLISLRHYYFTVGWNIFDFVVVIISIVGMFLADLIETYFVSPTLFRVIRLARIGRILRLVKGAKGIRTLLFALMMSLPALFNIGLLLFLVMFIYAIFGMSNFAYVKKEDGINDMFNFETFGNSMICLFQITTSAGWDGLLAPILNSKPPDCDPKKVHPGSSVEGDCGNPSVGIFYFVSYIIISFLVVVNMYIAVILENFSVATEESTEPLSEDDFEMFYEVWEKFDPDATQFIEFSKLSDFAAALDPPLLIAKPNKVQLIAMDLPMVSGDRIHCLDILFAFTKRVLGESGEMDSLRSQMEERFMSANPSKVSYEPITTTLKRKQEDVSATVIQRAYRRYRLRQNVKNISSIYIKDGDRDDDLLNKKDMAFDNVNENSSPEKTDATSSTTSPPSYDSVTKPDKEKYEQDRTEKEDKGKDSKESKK

PAMPA (10^−6 cm/s) [1]	inhibition at 10 µM (NaV1.7 [2]) [%]	inhibition at 3 µM (NaV1.7 [3]) [%]	inhibition at 10 µM (NaV1.7 [3]) [%]	IC50 (NaV1.7 [4]) [nM]	SMILES
+ (“+” (<0.1 10^−6 cm/s))	< 40	70 to 90	70 to 95	–	CCC(C(=O)Nc1c(C)cccc1C)[N+]1(Cc2ccccc2)CCCCC1.[Br-] (stereo not drawn) [Compound 6A, 1-benzyl-1-(1-((2,6-dimethylphenyl)amino)-1-oxobutan-2-yl)piperidin-1-ium bromide]
+ (“+” (<0.1 10^−6 cm/s))	< 40	70 to 90	> 95	–	CCC(C(=O)Nc1c(C)cccc1C)[N+]1(Cc2ccccc2F)CCCCC1 (stereo not drawn) [Compound 9A]
–	< 40	70 to 90	70 to 95	–	Cc1cccc(C)c1NC(=O)C[N+]1(Cc2ccccc2)CCCCC1 [Compound 4A, 1-benzyl-1-(2-((2,6-dimethylphenyl)amino)-2-oxoethyl)piperidin-1-ium bromide]
+ (“+” (<0.1 10^−6 cm/s))	40 to 70	> 90	> 95	–	Cc1cccc(C)c1NC(=O)C[N+]1(Cc2ccccc2)CCCCCC1.[Br-] [Compound 3A, 1-benzyl-1-(2-((2,6-dimethylphenyl)amino)-2-oxoethyl) azepan-1-ium bromide]
–	40 to 70	> 90	–	300 to 1000	CCc1cccc(C)c1NC(=O)C[N+]1(Cc2ccccc2)CCCCCC1 [Compound 70A]
